The record followed here is patent US10385070B2, “Chroman-spirocyclic piperidine amides as modulators of ion channels” (VERTEX PHARMACEUTICALS INCORPORATED, priority 2011, dated 2019).

A value given as a limit tells only on which side of the number the result lay.

Chain of human NaV subtype, like NaV 1.7 (Q15858 whole entry): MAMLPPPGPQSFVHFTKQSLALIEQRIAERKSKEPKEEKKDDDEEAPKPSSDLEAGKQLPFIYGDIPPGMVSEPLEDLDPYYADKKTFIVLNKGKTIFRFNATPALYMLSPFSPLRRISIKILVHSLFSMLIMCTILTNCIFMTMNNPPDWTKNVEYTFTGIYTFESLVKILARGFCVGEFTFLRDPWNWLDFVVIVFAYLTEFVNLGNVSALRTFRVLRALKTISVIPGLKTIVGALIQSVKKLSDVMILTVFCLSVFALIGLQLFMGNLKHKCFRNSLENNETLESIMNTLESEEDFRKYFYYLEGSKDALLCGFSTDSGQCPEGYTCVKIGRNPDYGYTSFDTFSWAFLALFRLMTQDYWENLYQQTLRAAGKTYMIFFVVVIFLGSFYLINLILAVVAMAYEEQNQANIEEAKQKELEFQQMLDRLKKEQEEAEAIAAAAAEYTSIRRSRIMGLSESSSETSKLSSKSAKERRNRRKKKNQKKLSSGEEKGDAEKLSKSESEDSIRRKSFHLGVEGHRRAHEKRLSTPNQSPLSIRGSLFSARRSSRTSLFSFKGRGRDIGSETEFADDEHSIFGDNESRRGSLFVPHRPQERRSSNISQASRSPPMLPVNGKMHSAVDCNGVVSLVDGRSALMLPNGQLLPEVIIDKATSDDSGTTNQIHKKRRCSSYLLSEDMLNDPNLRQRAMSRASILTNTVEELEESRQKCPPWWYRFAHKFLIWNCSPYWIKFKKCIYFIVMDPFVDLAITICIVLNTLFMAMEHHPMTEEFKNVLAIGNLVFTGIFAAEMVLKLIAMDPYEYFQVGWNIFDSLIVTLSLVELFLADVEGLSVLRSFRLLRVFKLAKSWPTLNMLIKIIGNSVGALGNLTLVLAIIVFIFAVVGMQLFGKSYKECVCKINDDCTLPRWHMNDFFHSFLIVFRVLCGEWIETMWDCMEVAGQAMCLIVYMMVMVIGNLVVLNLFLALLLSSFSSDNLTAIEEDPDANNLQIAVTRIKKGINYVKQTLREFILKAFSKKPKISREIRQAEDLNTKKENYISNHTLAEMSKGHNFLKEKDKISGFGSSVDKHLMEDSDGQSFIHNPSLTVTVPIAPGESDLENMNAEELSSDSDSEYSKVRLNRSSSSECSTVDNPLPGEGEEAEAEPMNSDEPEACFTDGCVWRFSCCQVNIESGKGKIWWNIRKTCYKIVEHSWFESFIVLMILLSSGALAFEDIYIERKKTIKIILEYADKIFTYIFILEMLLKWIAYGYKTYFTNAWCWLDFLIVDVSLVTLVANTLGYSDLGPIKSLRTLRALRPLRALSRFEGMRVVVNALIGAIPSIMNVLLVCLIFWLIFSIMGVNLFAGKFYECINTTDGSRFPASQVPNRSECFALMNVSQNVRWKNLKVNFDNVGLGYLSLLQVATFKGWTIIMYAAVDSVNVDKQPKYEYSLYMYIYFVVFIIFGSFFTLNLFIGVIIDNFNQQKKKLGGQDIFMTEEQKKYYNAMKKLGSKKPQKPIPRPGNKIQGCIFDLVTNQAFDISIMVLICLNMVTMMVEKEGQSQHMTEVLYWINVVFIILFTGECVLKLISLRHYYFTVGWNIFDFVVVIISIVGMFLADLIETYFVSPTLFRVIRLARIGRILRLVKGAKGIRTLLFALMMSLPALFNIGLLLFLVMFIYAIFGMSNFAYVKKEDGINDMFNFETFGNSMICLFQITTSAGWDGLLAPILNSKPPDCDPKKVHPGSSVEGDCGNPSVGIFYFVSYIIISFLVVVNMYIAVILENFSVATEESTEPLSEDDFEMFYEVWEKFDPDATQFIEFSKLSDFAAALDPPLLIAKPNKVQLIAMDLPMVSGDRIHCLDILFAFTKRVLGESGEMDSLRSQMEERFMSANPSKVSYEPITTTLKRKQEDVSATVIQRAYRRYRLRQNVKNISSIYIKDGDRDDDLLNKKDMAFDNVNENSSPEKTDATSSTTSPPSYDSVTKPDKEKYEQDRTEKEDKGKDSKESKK

The test has as its target human NaV subtype, like NaV 1.7 (Homo sapiens, UniProt Q15858). Nature of the test: E-VIPR optical membrane potential assay with electrical stimulation. The test is classed as cell-based. Particulars: active against one or more sodium channels; assay and NaV subtype not specified for Table 3; read-out: IC50 Binned Activity Data. The text has this:
Assays for Detecting and Measuring NaV Inhibition Properties of Compound E-VIPR Optical Membrane Potential Assay Method with Electrical Stimulation
Sodium channels are voltage-dependent proteins that can be activated by inducing membrane voltage changes by applying electric fields. The electrical stimulation instrument and methods of use are described in Ion Channel Assay Methods PCT/US01/21652, herein incorporated by reference and are referred to as E-VIPR. The instrument comprises a microtiter plate handler, an optical system for exciting the coumarin dye while simultaneously recording the coumarin and oxonol emissions, a waveform generator, a current- or voltage-controlled amplifier, and a device for inserting electrodes in well. Under integrated computer control, this instrument passes user-programmed electrical stimulus protocols to cells within the wells of the microtiter plate.
24 hours before the assay on E-VIPR, HEK cells expressing human NaV subtype, like NaV 1.7, are seeded in 384-well poly-lysine coated plates at 15,000-20,000 cells per well. Other subtypes are performed in an analogous mode in a cell line expressing the NaV of interest. HEK cells are grown in media (exact composition is specific to each cell type and NaV subtype) supplemented with 10% FBS (Fetal Bovine Serum, qualified; GibcoBRL #16140-071) and 1% Pen-Strep (Penicillin-Streptomycin; GibcoBRL #15140-122). Cells are grown in vented cap flasks, in 90% humidity and 10% CO2, to 100% confluence. They are usually split by trypsinization 1:10 or 1:20, depending on scheduling needs, and grown for 2-3 days before the next split.
100 mg/mL Pluronic F-127 (Sigma #P2443), in dry DMSO
Compound Plates: 384-well round bottom plate, e.g. Corning 384-well Polypropylene Round Bottom #3656
Cell Plates: 384-well tissue culture treated plate, e.g. Greiner #781091-1B
Bath1 buffer. Glucose 10 mM (1.8 g/L), Magnesium Chloride (Anhydrous), 1 mM (0.095 g/L), Calcium Chloride, 2 mM (0.222 g/L), HEPES 10 mM (2.38 g/L), Potassium Chloride, 4.5 mM (0.335 g/L), Sodium Chloride 160 mM (9.35 g/L).
Hexyl Dye Solution: Bath1 Buffer+0.5% β-cyclodextrin (make this prior to use, Sigma #C4767), 8 μM CC2-DMPE+2.5 μM DiSBAC6(3). To make the solution Add volume of 10% Pluronic F127 stock equal to volumes of CC2-DMPE+DiSBAC6(3). The order of preparation is first mix Pluronic and CC2-DMPE, then add DiSBAC6(3) while vortexing, then add Bath1+β-Cyclodextrin.
1) Pre-spot compounds (in neat DMSO) into compound plates. Vehicle control (neat DMSO), the positive control (20 mM DMSO stock tetracaine, 125 μM final in assay) and test compounds are added to each well at 160× desired final concentration in neat DMSO. Final compound plate volume will be 80 μL (80-fold intermediate dilution from 1 μL DMSO spot; 160-fold final dilution after transfer to cell plate). Final DMSO concentration for all wells in assay is 0.625%.
2) Prepare Hexyl Dye Solution.
3) Prepare cell plates. On the day of the assay, medium is aspirated and cells are washed three times with 100 μL of Bath1 Solution, maintaining 25 μL residual volume in each well.
4) Dispense 25 μL per well of Hexyl Dye Solution into cell plates. Incubate for 20-35 minutes at room temp or ambient conditions.
5) Dispense 80 μL per well of Bath1 into compound plates. Acid Yellow-17 (1 mM) is added and Potassium Chloride can be altered from 4.5 to 20 mM depending on the NaV subtype and assay sensitivity.
6) Wash cell plates three times with 100 μL per well of Bath1, leaving 25 μL of residual volume. Then transfer 25 uL per well from Compound Plates to Cell Plates. Incubate for 20-35 minutes at room temp/ambient condition
7) Read Plate on E-VIPR. Use the current-controlled amplifier to deliver stimulation wave pulses for typically 9 seconds and a scan rate of 400 Hz. A pre-stimulus recording is performed for 0.5 seconds to obtain the un-stimulated intensities baseline. […]
In the case of `CC(C)O[C@@H]1CC2(CCN(C(=O)c3ccc(NC4(C)COC4)cn3)CC2)Oc2ccc(F)cc21` [Compound 1], the half-maximal inhibitory concentration (IC50) was not above 2 µM.

Regarding `COc1cc(C(=O)N2CCC3(CC2)CC(COC(C)C)c2ccccc2O3)ccc1OC(C)C` (stereo not drawn) [Compound 2], the IC50 is not above 2 µM.

For the compound `COc1cc(C(=O)N2CCC3(CC2)CC(Oc2cncc(C#N)c2)c2ccccc2O3)ccc1OC(C)C` (stereo not drawn) [Compound 3], the IC50 was not above 2 µM.

Turning to `CCS(=O)(=O)c1ccc(C(=O)N2CCC3(CC2)C[C@@H](OC(C)C)c2cc(F)cc(F)c2O3)cc1C` [Compound 4], the IC50 was in the range of 2 to 5 µM.

Turning to `CCO[C@@H]1CC2(CCN(C(=O)c3ccc(S(=O)(=O)CC(C)C)cc3)CC2)Oc2ccc(F)cc21` [Compound 5], the half-inhibitory concentration (IC50) is not above 2 µM.

Take `COc1cc(C(=O)N2CCC3(CC2)CC(C(C)OC)c2ccccc2O3)ccc1OC(C)C` (stereo not drawn) [Compound 6]: the IC50 was not above 2 µM.

`CC(C)O[C@@H]1CC2(CCN(C(=O)c3ccc(S(=O)(=O)C(F)(F)F)cc3)CC2)Oc2ccc(F)cc21` [Compound 7]: the IC50 was not above 2 µM.

As to `CC(C)Oc1ccc(C(=O)N2CCC3(CC2)C[C@@H](OC(C)C)c2cc(F)ccc2O3)cc1CN` [Compound 8], the half-inhibitory concentration (IC50) was more than 5 µM.

For the compound `CCS(=O)(=O)c1ccc(C(=O)N2CCC3(CC2)C[C@@H](OC(C)C)c2cc(F)ccc2O3)cc1C` [Compound 9], the half-inhibitory concentration (IC50) is not above 2 µM.

Regarding `COc1cc(C(=O)N2CCC3(CC2)C[C@@H](OC(C)C)c2cc(F)ccc2O3)ccc1C(C)(C)O` [Compound 10], the half-inhibitory concentration (IC50) was not above 2 µM.

`Cc1cc(S(=O)(=O)C(C)C)ccc1C(=O)N1CCC2(CC1)C[C@@H](OC(C)C)c1cc(F)ccc1O2` [Compound 11]: the IC50 is not above 2 µM.

`CCOC1CC2(CCN(C(=O)c3ccc(OC(C)C)c(OC)c3)CC2)Oc2ccccc21` (stereo not drawn) [Compound 12]: the IC50 was not above 2 µM.

Turning to `Cc1cc(C(=O)N2CCC3(CC2)C[C@@H](OC(C)C)c2cc(F)ccc2O3)ccc1S(=O)(=O)C(C)C` [Compound 13], the IC50 was not above 2 µM.

Consider `CC(C)O[C@@H]1CC2(CCN(C(=O)c3cccc4cccnc34)CC2)Oc2ccccc21` [Compound 14], for which the IC50 was not above 2 µM.

Take `CNCc1cc(C(=O)N2CCC3(CC2)C[C@@H](OC(C)C)c2cc(F)ccc2O3)ccc1OC(C)C` [Compound 15]: the 50% inhibitory concentration (IC50) is more than 5 µM.

In the case of `CC(C)O[C@@H]1CC2(CCN(C(=O)c3ccc(N(C)C(C)C)cn3)CC2)Oc2ccc(F)cc21` [Compound 16], the IC50 is not above 2 µM.

As to `CC(C)O[C@@H]1CC2(CCN(C(=O)c3ccc(N4CCN(S(C)(=O)=O)CC4)cn3)CC2)Oc2ccc(F)cc21` [Compound 17], the IC50 was not above 2 µM.

Take `COc1ccc(C(=O)N2CCC3(CC2)CC(c2ccccc2)c2ccccc2O3)cc1OC` (stereo not drawn) [Compound 18]: the IC50 was not above 2 µM.

Take `CC(C)O[C@@H]1CC2(CCN(C(=O)c3ccc(NS(=O)(=O)C(C)C)cc3)CC2)Oc2ccc(F)cc21` [Compound 19]: the IC50 is not above 2 µM.

Turning to `COc1ccc(C(=O)N2CCC3(CC2)C[C@@H](OC(C)C)c2ccccc2O3)cc1C` [Compound 20], the half-inhibitory concentration (IC50) was not above 2 µM.

As for `C=CCOC1CC2(CCN(C(=O)c3ccc(OC(C)C)c(OC)c3)CC2)Oc2ccccc21` (stereo not drawn) [Compound 21], the IC50 is not above 2 µM.

With `CC(C)O[C@@H]1CC2(CCN(C(=O)c3ccc(S(=O)(=O)C(C)C)c(C#N)c3)CC2)Oc2ccc(F)cc21` [Compound 22], the IC50 is not above 2 µM.

As to `COc1cc(C(=O)N2CCC3(CC2)CC(COCC(F)F)c2ccccc2O3)ccc1OC(C)C` (stereo not drawn) [Compound 23], the IC50 was not above 2 µM.

Turning to `CCOC1CC2(CCN(C(=O)c3ccc(OC(C)C)c(OC)c3)CC2)S(=O)(=O)c2ccccc21` (stereo not drawn) [Compound 24], the IC50 is not above 2 µM.

Take `COc1cc(C(=O)N2CCC3(CC2)CC(OC(C)C)c2ccc(F)cc2O3)ccc1OC(C)C` (stereo not drawn) [Compound 25]: the IC50 is not above 2 µM.

Turning to `Cc1cc(C(=O)N2CCC3(CC2)C[C@H](OC(C)C)c2ccccc2O3)ccc1C(C)(C)O` [Compound 26], the concentration for half-maximal inhibition (IC50) was not above 2 µM.

Turning to `Cc1cc(C(=O)N2CCC3(CC2)C[C@@H](OC(C)C)c2cc(F)cc(F)c2O3)ccc1S(=O)(=O)C(C)C` [Compound 27], the concentration for half-maximal inhibition (IC50) was not above 2 µM.

`CC(C)O[C@@H]1CC2(CCN(C(=O)c3ccc4[nH]ncc4c3)CC2)Oc2ccccc21` [Compound 28]: the IC50 was in the range of 2 to 5 µM.

In the case of `CC(C)OC1CC2(CCN(C(=O)c3ccc(S(=O)(=O)C(C)C)c(C#N)c3)CC2)Oc2ccc(F)cc21` (stereo not drawn) [Compound 29], the IC50 was not above 2 µM.

On to `CC(C)OC1CC2(CCN(C(=O)c3ccc(S(=O)(=O)CC4CC4)cn3)CC2)Oc2ccc(F)cc21` (stereo not drawn) [Compound 30], for which the IC50 was in the range of 2 to 5 µM.

In the case of `CC(C)O[C@@H]1CC2(CCN(C(=O)c3ccc(C(C)(C)O)c(F)c3)CC2)Oc2ccccc21` [Compound 31], the half-maximal inhibitory concentration (IC50) was not above 2 µM.

Turning to `CCO[C@@H]1CC2(CCN(C(=O)c3ccc(S(=O)(=O)C(C)C)cc3)CC2)Oc2ccc(F)cc21` [Compound 32], the IC50 lay in the range of 2 to 5 µM.

Regarding `COc1cc(C(=O)N2CCC3(CC2)CC(OC(C)C)c2nn(C(C)(C)C)cc2O3)ccc1OC(C)C` (stereo not drawn) [Compound 34], the half-inhibitory concentration (IC50) was not above 2 µM.

Turning to `CC(C)OCC1CC2(CCN(C(=O)c3ccc(C(C)(C)O)cc3)CC2)Oc2ccccc21` (stereo not drawn) [Compound 35], the IC50 is not above 2 µM.

As for `Cc1cc(C(=O)N2CCC3(CC2)C[C@@H](OC(C)C)c2ccccc2O3)ccc1O` [Compound 36], the half-maximal inhibitory concentration (IC50) was not above 2 µM.

As for `Cc1cc(C(=O)N2CCC3(CC2)CC(OC(C)C)c2ccncc2O3)ccc1OC(C)C` (stereo not drawn) [Compound 37], the half-maximal inhibitory concentration (IC50) was not above 2 µM.

Consider `CCN(CC)CCOC1CC2(CCN(C(=O)c3ccc(OC(C)C)c(OC)c3)CC2)Oc2ccccc21` (stereo not drawn) [Compound 38], for which the 50% inhibitory concentration (IC50) is more than 5 µM.

On to `CC(C)S(=O)(=O)c1ccc(C(=O)N2CCC3(CCc4ccccc4O3)CC2)cc1` [Compound 39], for which the IC50 was more than 5 µM.

As to `COc1ccccc1C(=O)N1CCC2(CC1)CC(C(C)C)c1ccccc1O2` (stereo not drawn) [Compound 40], the half-inhibitory concentration (IC50) was more than 5 µM.

Turning to `COC1CCN(c2ccc(C(=O)N3CCC4(CC3)C[C@@H](OC(C)C)c3cc(F)ccc3O4)nc2)CC1` [Compound 41], the IC50 is not above 2 µM.

With `CC(C)Oc1ccc(C(=O)N2CCC3(CC2)C[C@H](OC(C)C)c2ccccc2O3)cc1CO` [Compound 42], the half-maximal inhibitory concentration (IC50) was not above 2 µM.

`Cc1cc(C(=O)N2CCC3(CC2)CC(OC(C)C)c2cc(C#N)ccc2O3)ccc1C(C)(C)O` (stereo not drawn) [Compound 43]: the concentration for half-maximal inhibition (IC50) was not above 2 µM.

Consider `COCOC1=Cc2ccccc2OC12CCN(C(=O)c1ccc(OC(C)C)c(OC)c1)CC2` [Compound 44], for which the IC50 was not above 2 µM.

Consider `Cc1cc(C(=O)N2CCC3(CC2)CC(OC(C)C)c2cccnc2O3)ccc1OC(C)C` (stereo not drawn) [Compound 45], for which the concentration for half-maximal inhibition (IC50) was not above 2 µM.

Turning to `CC(C)Nc1ccc(C(=O)N2CCC3(CC2)C[C@@H](OC(C)C)c2cc(F)ccc2O3)nc1` [Compound 46], the 50% inhibitory concentration (IC50) is not above 2 µM.

`COc1cc(C(=O)N2CCC3(CC2)CC(NC(C)C)c2ccccc2O3)ccc1OC(C)C` (stereo not drawn) [Compound 47]: the 50% inhibitory concentration (IC50) was more than 5 µM.

With `CC(C)O[C@@H]1CC2(CCN(C(=O)c3ccc(C(C)(C)O)c(F)c3)CC2)Oc2ccc(F)cc21` [Compound 48], the IC50 is not above 2 µM.

`CC(C)O[C@@H]1CC2(CCN(C(=O)c3ccc(C4(O)CCCC4)cc3)CC2)Oc2ccc(F)cc21` [Compound 49]: the half-inhibitory concentration (IC50) was not above 2 µM.
